Test results reported in patent publication US8652523B2, “Oral pharmaceutical formulation in the form of a plurality of microcapsules for prolonged release of active principle(s) with slow solubility” (Flamel Technologies, priority 2002, dated 2014).
Converted amounts (≈) assume the structure as drawn.

Assays:
[1] = Increase in solubility of spironolactone in aqueous solution at pH 6.8, 25° C.; format: physicochemical; details: pH 6.8, aqueous buffer, without solubilizing agent
[2] = Method for measuring solubility of AP in aqueous solution containing solubilizing agent Cremophor RH 40 (37° C., 6 hours, filtration, HPLC); format: physicochemical
Procedure: The solution is stirred at 37° C. for 6 hours and then filtered through a filter with a 0.2 μm pore diameter. The content of solubilized AP is evaluated by HPLC chromatography or any other suitable analytical technique.
The ability of the solubilizing agent, made of Cremophor® RH 40, to solubilize an active principle, made up of spironolactone, is tested according to the following method for measuring solubility:
The AP is introduced into an aqueous solution containing the solubilizing agent. The solution is stirred at 37° C. for 6 hours and is then filtered through a filter with a 0.2 μm pore diameter. The content of solubilized AP is evaluated by HPLC.

Structure (SMILES): CC(=O)S[C@@H]1CC2=CC(=O)CC[C@]2(C)[C@H]2CC[C@@]3(C)[C@@H](CC[C@@]34CCC(=O)O4)[C@H]12 [spironolactone]
- solubility [1]: ~38 µg/mL (≈ 91.2 µM)
- (Spironolactone) dissolved in solution ([2]; Cremophor RH 40 0 % w/w at 37° C.): <0.1 mg/mL
- (Spironolactone) dissolved in solution ([2]; Cremophor RH 40 1 % w/w at 37° C.): 0.1 mg/mL
- (Spironolactone) dissolved in solution ([2]; Cremophor RH 40 2 % w/w at 37° C.): 0.2 mg/mL
- (Spironolactone) dissolved in solution ([2]; Cremophor RH 40 5 % w/w at 37° C.): 0.4 mg/mL
- (Spironolactone) dissolved in solution ([2]; Cremophor RH 40 10 % w/w at 37° C.): 0.8 mg/mL
- (Spironolactone) dissolved in solution ([2]; Cremophor RH 40 20 % w/w at 37° C.): 1.4 mg/mL
